From article PMC4230996 (Journal of Medicinal Chemistry, 2014)
Each block holds one compound with its values, some of them ahead of it.

Legend:
mGlu4 [1] = conditions: read-out: hEC50; human mGlu4 PAM potency; cited from earlier work
mGlu4 [2] = target: mGlu4 (Rattus norvegicus, UniProt P31423); assay: PET imaging of [^18F]3 in rats, baseline and blocking studies; assay type: in vivo, rat (male Sprague–Dawley); conditions: blocking agent 10 mg/kg injected 5 min before [^18F]3; uptake as area under TAC
mGlu5a = assay: selectivity functional assay, IPs accumulation in CHO cells; assay type: cell-based; conditions: single concentration 10 μM
mGlu1a = assay: as above; assay type: cell-based; conditions: single concentration 10 μM
[3] = stability of 3 in neutral and acidic media by LC–MS; assay type: physicochemical
mGlu8 = mGlu8 (Homo sapiens, UniProt O00222); assay: selectivity test, split luciferase biosensor cAMP assay in transfected CHO cells; assay type: cell-based; conditions: single concentration 10 μM
human mGlu4 = conditions: read-out: IC50 (binding affinity to mGlu4); human mGlu4, Merck's patent; cited from earlier work

Chain of mGlu4 (Rattus norvegicus, UniProt P31423) (P31423 33-912): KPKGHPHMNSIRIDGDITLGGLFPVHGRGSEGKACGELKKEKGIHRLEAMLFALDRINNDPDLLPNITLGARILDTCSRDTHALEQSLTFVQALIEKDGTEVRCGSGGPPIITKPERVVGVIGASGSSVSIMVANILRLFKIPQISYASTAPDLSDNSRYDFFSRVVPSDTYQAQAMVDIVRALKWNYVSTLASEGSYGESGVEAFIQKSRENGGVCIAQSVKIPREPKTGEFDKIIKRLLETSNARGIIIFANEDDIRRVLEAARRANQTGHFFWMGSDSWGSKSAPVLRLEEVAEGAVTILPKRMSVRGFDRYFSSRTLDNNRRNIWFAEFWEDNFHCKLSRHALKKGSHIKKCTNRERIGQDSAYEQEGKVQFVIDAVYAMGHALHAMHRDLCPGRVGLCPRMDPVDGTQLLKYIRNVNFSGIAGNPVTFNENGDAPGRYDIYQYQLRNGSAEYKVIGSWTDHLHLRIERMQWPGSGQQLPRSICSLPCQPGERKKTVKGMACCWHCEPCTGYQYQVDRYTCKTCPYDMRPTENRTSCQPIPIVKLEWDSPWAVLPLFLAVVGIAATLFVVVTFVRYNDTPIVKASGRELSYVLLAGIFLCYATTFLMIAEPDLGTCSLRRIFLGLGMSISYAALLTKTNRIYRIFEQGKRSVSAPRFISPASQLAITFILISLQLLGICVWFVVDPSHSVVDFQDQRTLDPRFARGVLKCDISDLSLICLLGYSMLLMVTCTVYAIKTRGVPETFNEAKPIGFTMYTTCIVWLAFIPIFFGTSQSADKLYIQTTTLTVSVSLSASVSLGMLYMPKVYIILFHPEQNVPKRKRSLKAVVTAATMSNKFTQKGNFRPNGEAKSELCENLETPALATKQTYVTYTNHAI
Chain of mGlu8 (O00222 34-908): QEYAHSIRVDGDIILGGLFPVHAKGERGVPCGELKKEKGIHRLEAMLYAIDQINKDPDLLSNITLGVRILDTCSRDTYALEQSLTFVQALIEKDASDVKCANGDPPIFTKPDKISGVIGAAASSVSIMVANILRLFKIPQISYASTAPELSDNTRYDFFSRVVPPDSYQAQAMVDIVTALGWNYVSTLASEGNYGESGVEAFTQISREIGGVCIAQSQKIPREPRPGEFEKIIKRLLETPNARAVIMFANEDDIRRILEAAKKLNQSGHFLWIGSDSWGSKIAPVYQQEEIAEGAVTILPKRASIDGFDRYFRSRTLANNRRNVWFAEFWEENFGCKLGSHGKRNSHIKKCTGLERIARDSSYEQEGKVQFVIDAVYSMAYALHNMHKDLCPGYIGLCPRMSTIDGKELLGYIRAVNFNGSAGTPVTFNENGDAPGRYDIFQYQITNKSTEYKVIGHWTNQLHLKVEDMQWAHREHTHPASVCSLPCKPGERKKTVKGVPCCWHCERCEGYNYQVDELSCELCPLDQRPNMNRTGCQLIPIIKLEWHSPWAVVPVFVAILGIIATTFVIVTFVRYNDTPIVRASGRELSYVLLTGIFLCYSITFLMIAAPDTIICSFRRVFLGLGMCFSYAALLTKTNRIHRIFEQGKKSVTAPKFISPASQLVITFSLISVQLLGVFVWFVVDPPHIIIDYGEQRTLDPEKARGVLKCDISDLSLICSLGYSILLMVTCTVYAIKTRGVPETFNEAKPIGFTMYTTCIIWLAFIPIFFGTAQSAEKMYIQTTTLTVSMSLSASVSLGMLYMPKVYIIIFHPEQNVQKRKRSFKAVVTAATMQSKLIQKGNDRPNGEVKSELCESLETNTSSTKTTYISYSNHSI

reduced uptake of [^18F]3 in rat brain regions (blocking effect) (mGlu4 [2]): 10–20%
Compound: O=C(Nc1cccc(OC(F)F)c1)c1ccccn1 [Compound 2, N-(3-(difluoromethoxy)phenyl)-2-picolinamide]

stability in neutral media ([3]; 0.1 M ammonium formate water–acetonitrile solution): two side products were detected | stability in acidic media ([3]; acidic media): minimal hydrolysis products | agonist or antagonist activity at mGlu8 (mGlu8): little activity
Compound: O=C(Nc1ccc(N2C(=O)c3cccc(F)c3C2=O)c(Cl)c1)c1ccccn1 [Compound 3, N-(3-Chloro-4-(4-fluoro-1,3-dioxoisoindolin-2-yl)phenyl)-2-picolinamide]
agonist or antagonist activity at mGlu5 (mGlu5a): little activity | agonist or antagonist activity at mGlu1 (mGlu1a): little activity

Compound: Cc1cccc2c1C(=O)N(c1ccc(NC(=O)c3ccccn3)cc1Br)C2=O [Compound 5]
EC50 (mGlu4 [1]): 101 nM | IC50 (human mGlu4): 12 nM
